The text below walks through data of article PMC9561151, “Structural studies of the phosphoribosyltransferase involved in cobamide biosynthesis in methanogenic archaea and cyanobacteria” (Scientific Reports, 2022).

In data set [1] the target is T1, MjCobT (Methanocaldococcus jannaschii, UniProt Q58993).
T1 construct: gene MJ1598; expressed in E. coli BL21-CodonPlus from pTEV5; N-terminal His6 tag cut with rTEV; Met 1 to Tyr 348 modelled; dimer
In words: turnover in crystal, product seen by X-ray. The data set is classed as biochemical. The note with it: free base not seen in the structure.

Data set [2] has as its target T1, MjCobT. The data set can be described thus: X-ray crystal structure of complex, […] Å. Format: binding.
Data set [3] has as its target T1, MjCobT. The data set can be described thus: X-ray crystal structure of complex, […] Å. The data set is classed as binding. The note with it: formed in the crystal from NaMN and adenine; active site with nicotinic acid.
Data set [4] deals with the molecule itself. The data set can be described thus: crystal structure; three crystal forms of MjCobT grown at room temperature: apo (P41212, 1 subunit per asymmetric unit), with NaMN and α-RP + nicotinic acid (P21, 2 subunits), with α-AMP + nicotinic acid (P21, 2 subunits); molecular replacement with 3L0Z.

With `Cc1cc2nc[nH]c2cc1C` [DMB], the “turnover in crystal, product seen by X-ray” value on MjCobT [1] (1 mM DMB in crystallization, NaMN soak overnight) is reported as “During that time the enzyme catalyzed a transferase reaction”. With `O=C([O-])c1ccc[n+]([C@@H]2O[C@H](COP(=O)(O)O)[C@@H](O)[C@H]2O)c1` [NaMN], the “X-ray crystal structure of complex, 2.3 Å” value at MjCobT [2] (crystals grown with DMB, soaked overnight in 1 mM NaMN, NaMN in active site of chain A) was “NaMN lies at the base of the active site for chain A”. Turning to `Nc1ncnc2[nH]cnc12` [adenine], the “turnover in crystal, product seen by X-ray” value on MjCobT [1] (1 mM adenine and 1 mM NaMN soak, pH 8.5) is “the reaction product was prepared in situ by soaking the crystals in NaMN and adenine”. Consider `Nc1ncnc2ncn([C@H]3O[C@H](COP(=O)(O)O)[C@@H](O)[C@H]3O)c12` [α-AMP], for which the “X-ray crystal structure of complex, 1.4 Å” value at MjCobT [3] was “the crystals were highly ordered and the position of α-AMP is unequivocal”. With `Cc1cc2ncn([C@H]3O[C@H](COP(=O)(O)O)[C@@H](O)[C@H]3O)c2cc1C` [α-RP], the “X-ray crystal structure of complex, 2.3 Å” value on MjCobT [2] (formed in the crystal from NaMN and DMB, active site of chain B with nicotinic acid, occupancy below 1.0) was “One subunit contains NaMN, whereas the second includes α-RP and nicotinic acid”.

B1: Methanocaldococcus jannaschii nicotinate mononucleotide:base phosphoribosyltransferase (MjCobT) (enzyme)
chain: MSIIAINENGFLDKIKGRNPLFTCVISSIETTLSIPISGVHRDVIKYTPSADVELVFYGKSLTLKTPPIDATGSPTPATITRACVELKNIKNLHIDAGAFVKPKIPFIEIDEKPTGRIEEGKAMNNSKELYMKGYLLGKNLDAELLIVGESVPGGTTTALGVLLGLGYDAEGKVSSGSINNPHELKIKVVREGLKKAGINEKSSVFDVLNAVGDKMMPVVAGLAISFAERNKPVILAGGTQMSAVLAVIKEINKKVLDKNLIAIGTTEFVLNDKKGDLKGIVEQIGNVPVLASKFYFEKAKIEGLKNYCKGSVKEGVGAGGIAVYSIVNDLEPTKIREFIENKFYEWYKE
notes: CobT (NaMN:base phosphoribosyltransferase) of Methanocaldococcus jannaschii; the modelled chain runs from Met 1 to Tyr 348; also called PRTase from Methanocaldococcus jannaschii; source: E. coli BL21-CodonPlus, purified (80 °C heat step, Ni-NTA, rTEV cleavage, second Ni-NTA); not shown: His6, N-terminal, cleaved
As a reminder, the stoichiometry N is a count of units in the complex or per binding partner. As for B1, the “stoichiometry N” value in data set [4] is 2.
